Experimental data from paper PMC7343282, “Tissue Distribution of Several Series of Cationic Surfactants in Rainbow Trout (Oncorhynchus mykiss) Following Exposure via Water” (Environmental Science & Technology, 2020).
Read-outs that look alike come from different tables or passages of the source.

Assays:
[1] = cited from earlier work
[2] = test system: rainbow trout (Oncorhynchus mykiss); assay: Contribution of tissues to fish body burden; type: in vivo; details: for Contribution of Other tissue (all apart from blood, liver, gills and skin; muscle concentration assumed) to body burden: fraction; for % contribution to body burden, Gills / % contribution to body burden, Liver / % contribution to body burden, Mucus / % contribution to body burden, Muscle / % contribution to body burden, Skin / Share of body burden in interior tissues (blood, liver, and muscle) / Share of body burden present in gills and mucus: in vivo
Description: To calculate the quantity of the test chemical in the different tissues, the amount of each tissue in the fish was estimated and multiplied by the concentration in that tissue. The test chemical quantities in the different tissues were then summed to give the body burden in each fish. The total weight of the fish and the weight of the liver and gills were available from the dissection (Table S16). For skin and mucus, the estimated outer surface area of the fish was used. We note that the distinction between mucus and skin is an operational one determined by the extraction method; mucus can be viewed as a more readily extracted fraction of the test chemical residues at the fish surface. The volume of blood was taken as 0.0495 mL g^–1 fish.[30] The remaining tissue (difference between the weight of the whole fish and the weight of liver, gills, skin, and blood) was assumed to have the concentration measured in the muscle. The contribution of the different tissues to the body burden is given for each fish in Table S17, and the average contribution across all fish is plotted in Figure 1. All of the tissues, with the exception of blood, contribute at least 10% of the body burden for at least half of the test chemicals. There is no consistent negative correlation between the fraction of chemical associated with blood, muscle, and liver (tissues where the residue originates entirely from systemic uptake) and alkyl chain length (a measure of hydrophobicity). Thus, although adsorption to fish surfaces appears to play a significant role, its contribution to body burden cannot be simply predicted from surfactant hydrophobicity. In the following, we examine uptake in individual tissues.

Danio rerio = details: ref REACH dossiers (European Chemicals Agency); cited from earlier work
[3] = test system: rainbow trout (Oncorhynchus mykiss); assay: Surface area-normalized mucus-water and gill-water distribution coefficients; details: in vivo
Method: For each mixture, the syringe pump was started in an aquarium containing no fish. After 16 h, to allow the concentrations to stabilize, 12 rainbow trout were added. After 7 d of exposure, the fish in the exposure aquaria as well as several unexposed (control) fish were sacrificed. Following stunning, blood was collected with a heparinized syringe from the caudal vein into a 2 mL Eppendorf tube. The fish were weighed and photographed, and the length was measured. The outer surface area of the fish was estimated from the fish weight according to O’Shea et al.[27] [drawing 1] 1
The gill surface area was estimated from the fish weight according to the equation specific for O. mykiss from a report by Hughes,[28] taken from ref ([29]) [drawing 2] 2
Because the mass of extracted mucus was not determined, the concentrations in mucus were normalized to the estimated fish’s total surface area (eq 1) excluding the head, which was not rinsed.
Surface area-normalized gill–water distribution coefficients (DG–W) were calculated from the average concentrations measured in gills and water, and a calculated gill surface based on rainbow trout specific scaling factors (eq 2). […] Unlike the skin, the gills were not rinsed with methanol, so the gill samples included gill mucus.

Salmo trutta = test system: Salmo trutta; parameters: method as in REACH dossiers (European Chemicals Agency); details: ref REACH dossiers (European Chemicals Agency); cited from earlier work
[4] = cited from earlier work; remark: listed apart in the source
[5] = test system: bluegill fish (Lepomis macrochirus); details: cited from earlier work
killifish = details: cited from earlier work
[6] = secondary amines, no reference given

SMILES	% contribution to body burden, Gills [2]	% contribution to body burden, Liver [2]	% contribution to body burden, Mucus [2]	% contribution to body burden, Muscle [2]	% contribution to body burden, Skin [2]	Gill-water distribution coefficient (DG-W) [3]	Mucus-water distribution coefficient (DMuc-W) [3]	also measured
CNCCC(Oc1ccc(C(F)(F)F)cc1)c1ccccc1 (centres unmarked) [fluoxetine, reference compound]	–	–	–	–	–	–	–	pKa [1, 6]: > 9.5
CCCCCCCCCCN(C)C [T10, N,N-dimethyldecylamine]	14%	18%	8%	38%	18%	1.95 mLcm-2	1.28 mL cm-2	Contribution of Other tissue (all apart from blood, liver, gills and skin; muscle concentration assumed) to body burden ([2]; Fish #1): 0.54; Contribution of Other tissue (all apart from blood, liver, gills and skin; muscle concentration assumed) to body burden ([2]; Fish #2): 0.33; Contribution of Other tissue (all apart from blood, liver, gills and skin; muscle concentration assumed) to body burden ([2]; Fish #3): 0.35; Contribution of Other tissue (all apart from blood, liver, gills and skin; muscle concentration assumed) to body burden ([2]; Fish #4): 0.29; Contribution of Other tissue (all apart from blood, liver, gills and skin; muscle concentration assumed) to body burden ([2]; Fish #5): 0.38; Contribution of Other tissue (all apart from blood, liver, gills and skin; muscle concentration assumed) to body burden ([2]; Fish #6): 0.37; Contribution of Other tissue (all apart from blood, liver, gills and skin; muscle concentration assumed) to body burden ([2]; Mean): 0.38; Share of body burden in interior tissues (blood, liver, and muscle) [2]: more than half; 96h-LC50 (Danio rerio): 1.13 µg/mL; 96h-LC50 (Salmo trutta): 1.8 µg/mL
CCCCCCCCCCCCCCN(C)C [T14, N,N-dimethyltetradecylamine]	34%	7%	11%	22%	24%	150 mLcm-2	51 mL cm-2	Contribution of Other tissue (all apart from blood, liver, gills and skin; muscle concentration assumed) to body burden ([2]; Fish #1): 0.22; Contribution of Other tissue (all apart from blood, liver, gills and skin; muscle concentration assumed) to body burden ([2]; Fish #2): 0.21; Contribution of Other tissue (all apart from blood, liver, gills and skin; muscle concentration assumed) to body burden ([2]; Fish #3): 0.24; Contribution of Other tissue (all apart from blood, liver, gills and skin; muscle concentration assumed) to body burden ([2]; Fish #4): 0.21; Contribution of Other tissue (all apart from blood, liver, gills and skin; muscle concentration assumed) to body burden ([2]; Fish #5): 0.20; Contribution of Other tissue (all apart from blood, liver, gills and skin; muscle concentration assumed) to body burden ([2]; Fish #6): 0.24; Contribution of Other tissue (all apart from blood, liver, gills and skin; muscle concentration assumed) to body burden ([2]; Mean): 0.22; 96h-LC50 (Danio rerio): 0.35 µg/mL; 96h-LC50 (Salmo trutta): 0.18 µg/mL
CCCCCCCCCCCCNC [S12, N-methyldodecylamine]	20%	17%	7%	32%	21%	13.3 mLcm-2	5.4 mL cm-2	Share of body burden in interior tissues (blood, liver, and muscle) [2]: more than half
CN(C)CCC=C1c2ccccc2CCc2ccccc21 [amitriptyline, reference compound]	–	–	–	–	–	–	–	log DMW [4]: 3.9; pKa [1]: […]
CCCCCCCCCC[N+](C)(C)C [Q10, N,N,N-trimethyl-1-decylammonium]	23%	3%	11%	37%	24%	0.0064 mLcm-2	0.0035 mL cm-2	DG–W factor lower than tertiary amine of the same alkyl chain length [3]: 300; DMuc–W times lower than tertiary amine with the corresponding alkyl chain length [3]: 360
CCCCCCCCCCCCCC[N+](C)(C)C [Q14, N,N,N-trimethyl-1-tetradecylammonium]	70%	5%	10%	7%	8%	9.5 mLcm-2	1.40 mL cm-2	Share of body burden present in gills and mucus [2]: at least 50%; DG–W factor lower than tertiary amine of the same alkyl chain length [3]: 18; DMuc–W higher than Q10 [3]: 2.6 log units; DMuc–W times lower than tertiary amine with the corresponding alkyl chain length [3]: 37
CCCCCCCCCC[N+](C)(C)CCCCCCCCCC [didecyldimethylammonium chloride]	–	–	–	–	–	–	–	bioconcentration factor (BCF) ([5]; 14C-labeled): 81 L kg^–1; 14C residues in the skin, times higher than in edible tissues [5]: 2–6
CCCCCCCCCCCCCCCCNC [S16, N-methylhexadecylamine]	53%	12%	4%	16%	14%	300 mLcm-2	27 mL cm-2	Share of body burden present in gills and mucus [2]: at least 50%
COc1ccc([C@@H]2Sc3ccccc3N(CCN(C)C)C(=O)[C@@H]2OC(C)=O)cc1 [diltiazem]	–	–	–	–	–	–	–	Vd, plasma concentration based (killifish): 0.19–0.28 L kg^–1
CN[C@H]1CC[C@@H](c2ccc(Cl)c(Cl)c2)c2ccccc21 [sertraline, reference compound]	–	–	–	–	–	–	–	log DMW ([4]; membrane–water distribution coefficient): 4.3; pKa [1, 6]: > 9.5
